Results reported in EP0126944B1, “Use of 6-(Z) or 2-(Z) configurational 3,7,11-trimethyl-dodeca-2,6,10-trien-1-ols as bacteriostats in cosmetic products” (Dragoco Gerberding & Co. GmbH, priority 1983, dated 1984).

Key:
Experiment in all cases: Vertical diffusion test (impregnated filter paper embedded in agar)
Format in all cases: cell-based
Corynebacterium species = settings: 0,3 %; for Vertikaler Diffusionstest, Corynebacteriumt species 10^4 / Vertikaler Diffusionstest, Corynebacteriumt species 10^6 KBE/ml: 0,2 ml/ 15,9 cm^2; for Vertikaler Diffusionstest, Corynebacteriumt species 10^4: 10^4 KBE/ml; for antibakterielle Wirkung: Tabelle 1, Corynebacterium species
Excerpt: (§1) Die mikrobiologischen Prüfungen wurden mit den Bakterienarten Staphylococcus aureus, Corynebacterium species und Staphylococcus epidermidis durchgeführt. Es wurden jeweils Konzentrationen von 0,3 % der Verbindungen 1a, b, c, 2 gegen unterschiedliche Keimzahlen eingesetzt und 1. mit einer Aufschwemmung von 10^4 koloniebildenden Einheiten/ml (KBE/ml) und 2. mit 10^6 KBE/ml versehen. Die Durchführung der Untersuchung erfolgte in üblicher Weise, indem Filterpapierplättchen mit einer Fläche von 15,9 cm^2 mit je 0,2 ml der 0,3 % igen alkoholischen Konzentrationen beschickt wurden. Nach Trocknen der aufgebrachten Lösungen wurden die Filterpapierplättchen dann in den Agar von Petrischalen eingebettet, so daß die Oberfläche mit einer dünnen Agarschicht überschichtet werden konnte. Danach wurde die ganze Platte mit den Testbakterien in unterschiedlicher Keimkonzentration beimpft. (Tabelle 1)

[1] = test system: Staphylococcus aureus SG 511; settings: for Vertikaler Diffusionstest, Staphylococcus aureus SG 511 10^4 / Vertikaler Diffusionstest, Staphylococcus aureus SG 511 10^6 KBE/ml / antibakterielle Wirkung: 0,3 %; for Vertikaler Diffusionstest, Staphylococcus aureus SG 511 10^4 / Vertikaler Diffusionstest, Staphylococcus aureus SG 511 10^6 KBE/ml: 0,2 ml/ 15,9 cm^2; for Vertikaler Diffusionstest, Staphylococcus aureus SG 511 10^4: 10^4 KBE/ml; for antibakterielle Wirkung: Tabelle 1
Excerpt: as §1

[2] = test system: Staphylococcus epidermidis; settings: for Vertikaler Diffusionstest, Staphylococcus epidermidis 10^4 / Vertikaler Diffusionstest, Staphylococcus epidermidis 10^6 KBE/ml / Hemmung / antibakterielle Wirkung: 0,3 %; for Vertikaler Diffusionstest, Staphylococcus epidermidis 10^4 / Vertikaler Diffusionstest, Staphylococcus epidermidis 10^6 KBE/ml: 0,2 ml/ 15,9 cm^2; for Vertikaler Diffusionstest, Staphylococcus epidermidis 10^4: 10^4 KBE/ml; for Hemmung / antibakterielle Wirkung: Tabelle 1
Excerpt: as §1

CC(C)=CCC/C(C)=C/CC/C(C)=C\CO [Substanz 1a]
Vertikaler Diffusionstest, Corynebacteriumt species 10^4 (Corynebacterium species): 0 | Vertikaler Diffusionstest, Corynebacteriumt species 10^6 KBE/ml (Corynebacterium species): 0 | antibakterielle Wirkung (Corynebacterium species): deutliche antibakterielle Wirkung | Vertikaler Diffusionstest, Staphylococcus aureus SG 511 10^4 [1]: 0 | Vertikaler Diffusionstest, Staphylococcus aureus SG 511 10^6 KBE/ml [1]: 0 | antibakterielle Wirkung ([1]; Staphylococcus aureus): deutliche antibakterielle Wirkung | Vertikaler Diffusionstest, Staphylococcus epidermidis 10^4 [2]: 0 - 1 | Vertikaler Diffusionstest, Staphylococcus epidermidis 10^6 KBE/ml [2]: 0 - 1 | Hemmung ([2]; Staphylococcus epidermidis): fast totale Hemmung | antibakterielle Wirkung ([2]; Staphylococcus epidermidis): deutliche antibakterielle Wirkung

CC(C)=CCC/C(C)=C\CC/C(C)=C/CO [Substanz 1b]
Vertikaler Diffusionstest, Corynebacteriumt species 10^4 (Corynebacterium species): 0 | Vertikaler Diffusionstest, Corynebacteriumt species 10^6 KBE/ml (Corynebacterium species): 0 | antibakterielle Wirkung (Corynebacterium species): deutliche antibakterielle Wirkung | Vertikaler Diffusionstest, Staphylococcus aureus SG 511 10^4 [1]: 0 | Vertikaler Diffusionstest, Staphylococcus aureus SG 511 10^6 KBE/ml [1]: 0 | antibakterielle Wirkung ([1]; Staphylococcus aureus): deutliche antibakterielle Wirkung | Vertikaler Diffusionstest, Staphylococcus epidermidis 10^4 [2]: 0 | Vertikaler Diffusionstest, Staphylococcus epidermidis 10^6 KBE/ml [2]: 0 - 1 | Hemmung ([2]; Staphylococcus epidermidis): fast totale Hemmung | antibakterielle Wirkung ([2]; Staphylococcus epidermidis): deutliche antibakterielle Wirkung

CC(C)=CCC/C(C)=C\CC/C(C)=C\CO [Substanz 1c]
Vertikaler Diffusionstest, Corynebacteriumt species 10^4 (Corynebacterium species): 0 | Vertikaler Diffusionstest, Corynebacteriumt species 10^6 KBE/ml (Corynebacterium species): 0 | antibakterielle Wirkung (Corynebacterium species): deutliche antibakterielle Wirkung | Vertikaler Diffusionstest, Staphylococcus aureus SG 511 10^4 [1]: 0 | Vertikaler Diffusionstest, Staphylococcus aureus SG 511 10^6 KBE/ml [1]: 0 | antibakterielle Wirkung ([1]; Staphylococcus aureus): deutliche antibakterielle Wirkung | Vertikaler Diffusionstest, Staphylococcus epidermidis 10^4 [2]: 0 | Vertikaler Diffusionstest, Staphylococcus epidermidis 10^6 KBE/ml [2]: 0 - 1 | Hemmung ([2]; Staphylococcus epidermidis): fast totale Hemmung | antibakterielle Wirkung ([2]; Staphylococcus epidermidis): deutliche antibakterielle Wirkung

CC(C)=CCCC(C)=CCCC(C)=CCO [Substanz 2, Farnesol, reference compound]
Vertikaler Diffusionstest, Corynebacteriumt species 10^4 (Corynebacterium species): 0 | Vertikaler Diffusionstest, Corynebacteriumt species 10^6 KBE/ml (Corynebacterium species): 0 | Vertikaler Diffusionstest, Staphylococcus aureus SG 511 10^4 [1]: 0 - 1 | Vertikaler Diffusionstest, Staphylococcus aureus SG 511 10^6 KBE/ml [1]: 0 - 1 | Wirksamkeit ([1]; compared with 1a, b, c, Staphylococcus aureus): etwas geringerer Wirksamkeit | Vertikaler Diffusionstest, Staphylococcus epidermidis 10^4 [2]: 1 - 2 | Vertikaler Diffusionstest, Staphylococcus epidermidis 10^6 KBE/ml [2]: 1 - 2 | Wirksamkeit ([2]; compared with 1a, b, c, Staphylococcus epidermidis): etwas geringerer Wirksamkeit
